Where two headings read alike, the source gives them in different places.
Experiments:
delta opioid receptor [1] = target: T1, delta opioid receptor (Mus musculus, UniProt P32300); assay: [35S]GTPγS Binding Assay in NG108-15 Cell Membranes (Delta Opioid); type: biochemical; conditions: for delta GTPgS Rel Eff: relative efficacy
T1 construct: NG108-15 cell membranes were purchased from Applied Cell Sciences (Rockville, Md.); host or cells: NG108-15 cell membranes (purchased)
Experimental: Methods: NG108-15 cell membranes were purchased from Applied Cell Sciences (Rockville, Md.). 8 mg/mL of membrane protein suspended in 10 mM TRIS-HCl pH 7.2, 2 mM EDTA, 10% sucrose. Membranes were maintained at 4-8° C. A 1 mL volume of membranes was added into 10 mL cold binding assay buffer. The assay buffer contained 50 mM Tris, pH 7.6, 5 mM MgCl2, 100 mM NaCl, 1 mM DTT and 1 mM EGTA. The membrane suspension was homogenized twice with a Polytron, and centrifuged at 3000 rpm for 10 min. The supernatant was then centrifuged at 18,000 rpm for 20 min. Ten mL assay buffer was added into the pellet containing tube. The pellet and buffer were mixed with a Polytron.
Incubation procedure: The pellet membranes (75 μg/mL) were preincubated with SPA (10 mg/mL) at 25° C. for 45 min in the assay buffer. […] GTPγS in the same Tris buffer containing 100 μM GDP in total volume of 200 μL. Increasing concentrations of receptor agonists were used to stimulate [35S]- GTPγS binding. The basal binding was tested in the absence of agonists and non-specific binding was tested in the presence of 10 μM unlabeled GTPγS. The data were analyzed on a Packard Top Count.
% of Basal=(stimulated−non specific)*100/(basal−non specific). EC50 values were calculated using GraphPad Prism.

delta opioid receptor [2] = target: T2, delta opioid receptor (Rattus norvegicus, UniProt P33533); assay: Rat Brain Delta Opioid Receptor Binding Assay
T2 construct: from tissue; host or cells: forebrain of male Wistar rats (Charles River)

mu opioid receptor = target: T3, mu opioid receptor (Rattus norvegicus, UniProt P33535); assay: Rat Brain Mu Opioid Receptor Binding Assay
T3 construct: Following incubation with the mu selective peptide ligand, ˜0.8 nM [^3H]DAMGO; from tissue; host or cells: forebrain of male Wistar rats (Charles River)

[3] = NG108-15 cell membranes, stimulation of [35S]GTPγS binding, read-out: delta GTPgS EC50
[4] = rat forebrain membranes, [3H]DAMGO, read-out: mu (Ki)

T1 sequence (P32300 whole entry): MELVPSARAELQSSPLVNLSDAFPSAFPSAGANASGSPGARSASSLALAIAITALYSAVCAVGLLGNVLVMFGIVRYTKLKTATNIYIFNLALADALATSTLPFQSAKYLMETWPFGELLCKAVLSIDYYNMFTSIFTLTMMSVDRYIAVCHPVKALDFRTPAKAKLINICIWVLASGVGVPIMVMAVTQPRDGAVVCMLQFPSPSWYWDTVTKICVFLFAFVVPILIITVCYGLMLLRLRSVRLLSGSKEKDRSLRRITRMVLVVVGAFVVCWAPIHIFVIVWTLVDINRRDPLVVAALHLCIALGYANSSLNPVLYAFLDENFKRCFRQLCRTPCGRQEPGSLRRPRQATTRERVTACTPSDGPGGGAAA
T3 sequence (P33535 whole entry): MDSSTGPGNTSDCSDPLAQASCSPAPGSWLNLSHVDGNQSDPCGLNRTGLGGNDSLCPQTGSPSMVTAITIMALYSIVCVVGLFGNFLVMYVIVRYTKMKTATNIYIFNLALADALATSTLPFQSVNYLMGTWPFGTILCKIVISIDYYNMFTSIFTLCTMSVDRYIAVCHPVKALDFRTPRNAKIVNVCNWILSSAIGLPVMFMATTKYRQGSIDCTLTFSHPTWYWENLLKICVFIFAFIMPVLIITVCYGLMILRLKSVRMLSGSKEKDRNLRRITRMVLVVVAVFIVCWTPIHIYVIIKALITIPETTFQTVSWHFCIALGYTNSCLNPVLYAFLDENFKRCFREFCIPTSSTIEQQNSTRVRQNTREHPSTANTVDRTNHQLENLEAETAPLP
T2 sequence (P33533 whole entry): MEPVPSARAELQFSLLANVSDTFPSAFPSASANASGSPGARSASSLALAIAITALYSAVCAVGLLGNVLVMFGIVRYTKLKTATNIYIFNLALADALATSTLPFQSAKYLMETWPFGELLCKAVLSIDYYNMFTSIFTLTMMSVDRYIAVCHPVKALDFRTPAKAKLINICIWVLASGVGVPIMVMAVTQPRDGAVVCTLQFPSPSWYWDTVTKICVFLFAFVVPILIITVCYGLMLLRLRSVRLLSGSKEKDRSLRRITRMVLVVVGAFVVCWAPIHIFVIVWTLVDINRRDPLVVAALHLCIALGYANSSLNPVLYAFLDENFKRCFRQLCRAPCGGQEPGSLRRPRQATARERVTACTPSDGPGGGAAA

Molecule | EC50 (delta opioid receptor [1]; [3]) [nM] | Ki (delta opioid receptor [2]) [nM] | Ki (mu opioid receptor; [4]) [nM] | EC50 (delta opioid receptor [1]) [nM] | delta GTPgS Rel Eff (delta opioid receptor [1]; NG108-15 cell membranes) | Ki (mu opioid receptor) [nM] | Ki (delta opioid receptor [2]; rat forebrain membranes, [3H]DPDPE or [3H]naltrindole, read-out: delta (Ki)) [nM]
CCN(CC)C(=O)c1ccc2c(c1)Oc1ccccc1C2C1CC2CCC(C1)N2Cc1ccccn1 (stereo not shown) [Compound 15a, 9-(8-Pyridin-2-ylmethyl-8-aza-bicyclo[3.2.1]oct-3-yl)-9H-xanthene-3-carboxylic acid diethylamide] | 155 | 11.1 | 1410 |  |  |  | 
CCN(CC)C(=O)c1ccc2c(c1)Oc1ccccc1C2C1CC2CCC(C1)N2Cc1ccccc1 (stereo not shown) [Compound 11a, 9-(8-Benzyl-8-aza-bicyclo[3.2.1]oct-3-yl)-9H-xanthene-3-carboxylic acid diethylamide] |  | 19.9 |  | 118 | 0.78 | 1120 | 
CCN(CC)C(=O)c1ccc2c(c1)Oc1ccccc1C2C1CC2CCC(C1)N2Cc1cccs1 (stereo not shown) [Compound 14a, 9-(8-Thiophen-2-ylmethyl-8-aza-bicyclo[3.2.1]oct-3-yl)-9H-xanthene-3-carboxylic acid diethylamide] |  | 18.7 |  | 96.9 | 0.65 | 1650 | 
CCN(CC)C(=O)c1ccc2c(c1)Oc1c(O)cccc1C2C1CC2CCC(C1)N2Cc1ncc[nH]1 (stereo not shown) [Compound 10c, 5-Hydroxy-9-[8-(1H-imidazol-2-ylmethyl)-8-aza-bicyclo[3.2.1]oct-3-yl]-9H-xanthene-3-carboxylic acid diethylamide] |  | 0.32 |  | 6.4 | 0.94 | 70 | 
CCN(CC)C(=O)c1ccc2c(c1)Oc1c(OC)cccc1C2C1CC2CCC(C1)N2 (stereo not shown) [Compound 7c, 9-(8-Aza-bicyclo[3.2.1]oct-3-yl)-5-methoxy-9H-xanthene-3-carboxylic acid diethylamide] |  | 3.1 |  | 29.2 | 0.80 | 463 | 
CCN(CC)C(=O)c1ccc2c(c1)Oc1c(O)cccc1C2C1CC2CCC(C1)N2 (stereo not shown) [Compound 8c, 9-(8-Aza-bicyclo[3.2.1]oct-3-yl)-5-hydroxy-9H-xanthene-3-carboxylic acid diethylamide] |  | 1.29 |  | 5 | 0.85 | 75 | 
9-(8-Furan-3-ylmethyl-8-aza-bicyclo[3.2.1]oct-3-ylidene)-9H-xanthene-3-carboxylic acid diethylamide [Compound 10a] | 21.1 |  | 546 |  | 0.75 |  | 12.3
CCN(CC)C(=O)c1ccc2c(c1)Oc1c(O)cccc1C2C1CC2CCC(C1)N2Cc1ccoc1 (stereo not shown) [Compound 9c, 9-(8-Furan-3-ylmethyl-8-aza-bicyclo[3.2.1]oct-3-yl)-5-hydroxy-9H-xanthene-3-carboxylic acid diethylamide] |  | 0.73 |  | 4.6 | 1.02 | 73 | 

— patent US7589104B2, “Tricyclic-bridged piperidinyline derivatives as §-opioid modulators” (Janssen Pharmaceutica NV, priority 2004, dated 2009)
